This assay addresses SARS-CoV-2 NSP3 Mac1 (Severe acute respiratory syndrome coronavirus 2, UniProt P0DTD1). The assay is described as follows: biochemical. Format: binding. Particulars: for inhibition at 125 µM: read-out: Inhibition at top concentration of 125 µM (%); for IC50 in µM / IC50: top concentration 125 µM, 8-point 1:1 dilution, duplicate; for IC50: read-out: IC50; for inhibition at 25 µM: MIDAS compound library primary screen.

The mark [1] stands for this setting: MIDAS hit compounds and analogues, 125 µM.
[2] abbreviates: MIDAS hit compounds and analogues.

Where “and” joins values, the source holds several entries; their conditions need not be identical. Equal values may be shown once. Read-outs that look alike come from different tables or passages of the source.

Turning to `CC(C)n1ncc2c(C(=O)N(C)Cc3cccc(O)c3)cc(-c3cccs3)nc21` [IAL-MD0104, CC(C)N1N=CC=2C(=CC(=NC12)C3=CC=CS3)C(=O)N(C)CC=4C=CC=C(O)C4], the inhibition at 125 µM under setting [1] was 18.4%. The “IC50 in µM” value under setting [2] was “Not measurable”.

As for `CC(C)n1ncc2c(C(=O)N3CCC(C)(CO)CC3)cc(-c3cccs3)nc21` [IAL-MD0106, CC(C)N1N=CC=2C(=CC(=NC12)C3=CC=CS3)C(=O)N4CCC(C)(CO)CC4], the inhibition at 125 µM under setting [1] is 32.1%. In addition, under setting [2], the “IC50 in µM” value is recorded as “Not measurable”.

For `CC(C)n1ncc2c(C(=O)N3CCC(C)(O)CC3)cc(-c3cccs3)nc21` [IAL-MD0107, CC(C)N1N=CC=2C(=CC(=NC12)C3=CC=CS3)C(=O)N4CCC(C)(O)CC4], the inhibition at 125 µM under setting [1] worked out at 40.5%. For the same molecule, the “IC50 in µM” value under setting [2] is listed as “Not measurable”.

Broadly, the IC50 is the concentration needed to halve the response being measured. `CC(CNC(=O)c1cc(-c2cccs2)nc2c1cnn2C(C)C)N1CCCCC1` (centres unmarked) [IAL-MD0108, CC(C)N1N=CC=2C(=CC(=NC12)C3=CC=CS3)C(=O)NCC(C)N4CCCCC4]: the inhibition at 125 µM under setting [1] was found to be 60.5%. Besides, the IC50 under setting [2] is 68 µM and 67.8 µM.

For `CCn1ncc2c(C(=O)N(Cc3ccccn3)C(C)C)cc(-c3ccccc3)nc21` [IAL-MD0109, CCN1N=CC=2C(=CC(=NC12)C=3C=CC=CC3)C(=O)N(CC=4C=CC=CN4)C(C)C], under setting [1], the “Inhibition at top concentration of 125 µM (%)” value (from here on “Inhibition … (%)”) was “Not measurable”. Further, the “IC50 in µM” value under setting [2] is “Not measurable”.

For `O=C(c1ccc(NCC2CC2)nc1)N1CCC(c2c[nH]c3ncccc23)CC1` [IAL-MD0110, O=C(N1CCC(CC1)C2=CNC=3N=CC=CC23)C=4C=CC(NCC5CC5)=NC4], the inhibition at 125 µM under setting [1] is 7.8%. Also, the “IC50 in µM” value under setting [2] was “Not measurable”.

In the case of `CC1(C(=O)N2CCCC(c3c[nH]c4ncccc34)C2)CCC(=O)NC1` (centres unmarked) [IAL-MD0114, CC1(CCC(=O)NC1)C(=O)N2CCCC(C2)C3=CNC=4N=CC=CC34], the inhibition at 125 µM under setting [1] stood at 13.4%. Also, under setting [2], the “IC50 in µM” value is “Not measurable”.

For the molecule `CNC(=O)c1ccc(C(=O)N2CCC(c3c[nH]c4ncccc34)CC2)cn1` [IAL-MD0115, CNC(=O)C=1C=CC(=CN1)C(=O)N2CCC(CC2)C3=CNC=4N=CC=CC34], the inhibition at 125 µM under setting [1] was 9.3%. Further, the “IC50 in µM” value under setting [2] is on record as “Not measurable”.

`COCCN(CC(N)=O)C(=O)c1cc(-c2cccs2)nc2c1c(C)nn2C` [IAL-MD0116, COCCN(CC(=O)N)C(=O)C=1C=C(N=C2N(C)N=C(C)C12)C3=CC=CS3]: under setting [1], the inhibition at 125 µM came to 55.8%. The “IC50 in µM” value under setting [2] is “Not measurable”.

For `CCn1ncc2c(C(=O)NCc3ccc(OC)nc3)cc(-c3cccs3)nc21` [IAL-MD0117, CCN1N=CC=2C(=CC(=NC12)C3=CC=CS3)C(=O)NCC=4C=CC(OC)=NC4], the inhibition at 125 µM under setting [1] stood at 9.7%. For the same molecule, under setting [2], the “IC50 in µM” value is given as “Not measurable”.

Turning to `COc1ccc(-c2cc(C(=O)Nc3ccc4ccccc4c3)c3ccccc3n2)cc1` [IAL-MD0118, COC=1C=CC(=CC1)C=2C=C(C(=O)NC=3C=CC=4C=CC=CC4C3)C=5C=CC=CC5N2], the inhibition at 125 µM under setting [1] is 25.6%. In addition, the “IC50 in µM” value under setting [2] is “Not measurable”.

For the molecule `CCn1ncc2c(C(=O)NC(C)c3ccccn3)cc(-c3cccs3)nc21` (centres unmarked) [IAL-MD0119, CCN1N=CC=2C(=CC(=NC12)C3=CC=CS3)C(=O)NC(C)C=4C=CC=CN4], the inhibition at 125 µM under setting [1] stood at 6.3%. Also, under setting [2], the “IC50 in µM” value is given as “Not measurable”.

As to `CCn1ncc2c(C(=O)NC(C)c3ccncc3)cc(-c3cccs3)nc21` (centres unmarked) [IAL-MD0120, CCN1N=CC=2C(=CC(=NC12)C3=CC=CS3)C(=O)NC(C)C=4C=CN=CC4], the inhibition at 125 µM under setting [1] amounted to 8.9%. Moreover, the “IC50 in µM” value under setting [2] is recorded as “Not measurable”.

Turning to `Cc1nn(C)c2nc(-c3cccs3)cc(C(=O)NC3CCOCC3)c12` [IAL-MD0121, CC1=NN(C)C=2N=C(C=C(C(=O)NC3CCOCC3)C12)C4=CC=CS4], the inhibition at 125 µM under setting [1] turned out to be 17.8%. Moreover, the “IC50 in µM” value under setting [2] is listed as “Not measurable”.

With `CC(C)n1ncc2c(C(=O)N3CCNC(=O)C3)cc(-c3ccccc3)nc21` [IAL-MD0123, CC(C)N1N=CC=2C(=CC(=NC12)C=3C=CC=CC3)C(=O)N4CCNC(=O)C4], under setting [1], the inhibition at 125 µM stood at 1.8%. For the same molecule, the “IC50 in µM” value under setting [2] is listed as “Not measurable”.

Take `Cc1ccc(Cn2ncc3c(C(=O)N4CCNC(=O)C4)cc(C)nc32)cc1` [IAL-MD0124, CC=1C=CC(CN2N=CC=3C(=CC(C)=NC23)C(=O)N4CCNC(=O)C4)=CC1]: under setting [1], the “Inhibition … (%)” value is recorded as “Not measurable”. For the same molecule, the “IC50 in µM” value under setting [2] was “Not measurable”.

As for `CCOc1ccc2c(C)c(C(=O)N[C@@H]3CCNC[C@H]3O)oc2c1OCC` [IAL-MD0127, O=C(C(O1)=C(C)C2=C1C(OCC)=C(OCC)C=C2)N[C@H]3[C@H](O)CNCC3.[H]Cl], the inhibition at 25 µM came to 40% and the inhibition at 125 µM turned out to be 66.5%. Besides, under setting [2], the IC50 is 38 µM.

Molecule `Cn1ccc2c(-c3ccc(C(=O)N4CCCCC4)cn3)ccnc21` [IAL-MD0128, O=C(C1=CN=C(C2=C3C(N(C)C=C3)=NC=C2)C=C1)N4CCCCC4] had an inhibition at 25 µM of 58%. Under setting [1], the “Inhibition … (%)” value is reported as “Not measurable due to compound precipitation”. For the same molecule, the IC50 under setting [2] is ~3.1 µM and 3.1 µM. Further, the “assay effects in dose-response titration” value (MIDAS hits and analogues, higher compound concentrations) is reported as “assay interference effects at higher compound concentrations”.

For the molecule `CN1CCC(Cn2ccnc2-c2ccc(-c3ccccc3C#N)o2)C1` (centres unmarked) [IAL-MD0129, N#CC1=CC=CC=C1C2=CC=C(C3=NC=CN3CC4CN(C)CC4)O2], the inhibition at 25 µM is 55%. Also, the “Inhibition … (%)” value under setting [1] is recorded as “Not measurable due to compound precipitation”. For the same molecule, under setting [2], the concentration for half-maximal inhibition (IC50) turned out to be 14.2 µM.

As for `CC(C)NC(=O)c1ccc(-c2ccnc3c2ccn3C)o1` [IAL-MD0130, O=C(NC(C)C)C1=CC=C(C2=C3C(N(C)C=C3)=NC=C2)O1], the “Inhibition … (%)” value under setting [1] is recorded as “Not measurable due to compound precipitation”. For the same molecule, the IC50 under setting [2] turned out to be 7.6 µM.

Take `Cn1ccc2c(-c3ccc(C(=O)N4CCOCC4)o3)ccnc21` [IAL-MD0131, O=C(C1=CC=C(C2=C3C(N(C)C=C3)=NC=C2)O1)N4CCOCC4]: the “Inhibition … (%)” value under setting [1] was “Not measurable due to compound precipitation”. Moreover, under setting [2], the half-inhibitory concentration (IC50) came to 4.9 µM.

Take `Cn1ccc2c(-c3ccc(C(=O)NC4CC4)o3)ccnc21` [IAL-MD0132, O=C(NC1CC1)C2=CC=C(C3=C4C(N(C)C=C4)=NC=C3)O2]: the “Inhibition … (%)” value under setting [1] is recorded as “Not measurable due to compound precipitation”. In addition, the concentration for half-maximal inhibition (IC50) under setting [2] was found to be 7.2 µM.

Regarding `CN(C)C(=O)c1ccc(-c2ccnc3c2ccn3C)o1` [IAL-MD0133, O=C(N(C)C)C1=CC=C(C2=C3C(N(C)C=C3)=NC=C2)O1], the “Inhibition … (%)” value under setting [1] is “Not measurable due to compound precipitation”. The half-maximal inhibitory concentration (IC50) under setting [2] is 8.5 µM.

Regarding `CCCCNC(=O)c1ccc(-c2cc(N)nc3[nH]ccc23)o1` [IAL-MD0134, O=C(NCCCC)C1=CC=C(C2=C3C(NC=C3)=NC(N)=C2)O1], under setting [1], the inhibition at 125 µM is 77.8%. Also, the IC50 under setting [2] is 25 µM and 25.3 µM.

For the molecule `CN(C)C(=O)c1cncc(-c2ccnc3c2ccn3C)n1` [IAL-MD0135, O=C(C1=NC(C2=C3C(N(C)C=C3)=NC=C2)=CN=C1)N(C)C], the inhibition at 125 µM under setting [1] is 18.3%. The “IC50 in µM” value under setting [2] is recorded as “Not measurable”.

Take `Cn1ccc2c(-c3ncccc3C(N)=O)ccnc21` [IAL-MD0136, O=C(N)C1=C(C2=C3C(N(C)C=C3)=NC=C2)N=CC=C1]: the inhibition at 125 µM under setting [1] was found to be 49.7%. Moreover, the “IC50 in µM” value under setting [2] was “Not measurable”.

The values above are taken from PMC9965906, “Discovery and Development Strategies for SARS-CoV-2 NSP3 Macrodomain Inhibitors” (Pathogens, 2023).
